In ChEMBL document CHEMBL1201862, “PubChem BioAssay data set” (2004):
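1) Cells in 96-well plates. 2) Compound, 48 h, 5 concentrations. 3) Linear interpolation between surrounding doses. 4) Unreached endpoint = highest concentration. The concentration for 50% growth inhibition is given as GI50.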 Activity calls are given as the source filed them. No stated cut-off is given here; in the data, active = GI50 up to about 1.1 µM and inactive = higher.

Tests used:
Assay in all cases: inhibition of tumour cell growth, NCI panel, 48 h
KM12 = system: KM12
SF-539 = system: SF-539
SF-295 = system: SF-295
SK-MEL-28 = system: SK-MEL-28
SK-OV-3 = system: SK-OV-3
NCI-H226 = system: NCI-H226
UACC-62 = system: UACC-62
ACHN = system: ACHN
SW-620 = system: SW-620
HT-29 = system: HT-29
TK-10 = system: TK-10
K562 = system: K562
NCI-H23 = system: NCI-H23
U-251 = system: U-251
Malme-3M = system: Malme-3M
HOP-92 = system: HOP-92
OVCAR-8 = system: OVCAR-8
RXF 393 = system: RXF 393

Row | Structure (SMILES) | GI50 (KM12) | GI50 (SF-539) | GI50 (SF-295) | GI50 (SK-MEL-28) | GI50 (SK-OV-3) | GI50 (NCI-H226) | GI50 (UACC-62) | GI50 (ACHN) | GI50 (SW-620) | GI50 (HT-29) | GI50 (TK-10) | GI50 (K562) | GI50 (NCI-H23) | GI50 (U-251) | GI50 (Malme-3M) | GI50 (HOP-92) | GI50 (OVCAR-8) | GI50 (RXF 393)
1 | Cc1nc(N)nc(N)c1CCCc1ccccc1 | 28.6 µM (inactive) | 13.9 µM (inactive) | 5.18 µM (inactive) | 15.2 µM (inactive) | 57.5 µM (inactive) | 97.7 µM (inactive) | 5.55 µM (inactive) | 4.35 µM (inactive) | 4.57 µM (inactive) | 2.15 µM (inactive) | > 100 µM (inactive) | 0.552 µM (active) | 10.3 µM (inactive) | 5.36 µM (inactive) | 1.73 µM (inactive) | 11.6 µM (inactive) | 7.59 µM (inactive) | –
2 | Cc1ccc(NC(=O)CCC(=O)C(C#N)c2ccccc2)cc1C (stereo not given) | > 100 µM (inactive) | > 100 µM (inactive) | > 100 µM (inactive) | – | > 100 µM (inactive) | > 100 µM (inactive) | > 100 µM (inactive) | > 100 µM (inactive) | > 100 µM (inactive) | > 100 µM (inactive) | > 100 µM (inactive) | > 100 µM (inactive) | > 100 µM (inactive) | > 100 µM (inactive) | > 100 µM (inactive) | > 100 µM (inactive) | > 100 µM (inactive) | –
3 | Cc1cc(C)c2c(c1)CSCc1cc(C)cc(C)c1-2 | 42.6 µM (inactive) | – | 25.6 µM (inactive) | 1.72 µM (inactive) | 88.9 µM (inactive) | 38.8 µM (inactive) | 23.4 µM (inactive) | 35.4 µM (inactive) | 71.8 µM (inactive) | 19.3 µM (inactive) | > 100 µM (inactive) | 32.8 µM (inactive) | 36.9 µM (inactive) | 19.8 µM (inactive) | 18.1 µM (inactive) | – | 33 µM (inactive) | 39.4 µM (inactive)
4 | Cc1cc2c(cc1C)[n+]([O-])c(C(=O)/C=C/c1ccccc1Cl)c(C)[n+]2[O-] | 31.8 µM (inactive) | 19.9 µM (inactive) | 32.1 µM (inactive) | 26.9 µM (inactive) | 36 µM (inactive) | > 100 µM (inactive) | 18.3 µM (inactive) | 24.5 µM (inactive) | 35.1 µM (inactive) | 34.8 µM (inactive) | 25.4 µM (inactive) | 37.9 µM (inactive) | 19.3 µM (inactive) | 28.2 µM (inactive) | 31.8 µM (inactive) | – | 26.1 µM (inactive) | –
5 | COc1ccc(-c2nc(-c3cnccn3)n(C3OC(CO)C(O)C3O)n2)cc1 (stereo not given) | > 10 µM (inactive) | > 10 µM (inactive) | > 10 µM (inactive) | – | > 10 µM (inactive) | > 10 µM (inactive) | > 10 µM (inactive) | > 10 µM (inactive) | > 10 µM (inactive) | > 10 µM (inactive) | > 10 µM (inactive) | > 10 µM (inactive) | > 10 µM (inactive) | > 10 µM (inactive) | > 10 µM (inactive) | > 10 µM (inactive) | > 10 µM (inactive) | –
6 | O=C(N/C(=C\c1ccc([N+](=O)[O-])cc1)c1nc2ccccc2[nH]1)c1ccccc1 | > 100 µM (inactive) | > 100 µM (inactive) | > 100 µM (inactive) | > 100 µM (inactive) | – | – | > 100 µM (inactive) | > 100 µM (inactive) | > 100 µM (inactive) | 95.7 µM (inactive) | > 100 µM (inactive) | > 100 µM (inactive) | > 100 µM (inactive) | 63.7 µM (inactive) | > 100 µM (inactive) | 45.6 µM (inactive) | > 100 µM (inactive) | > 100 µM (inactive)
7 | O=S1(=O)OCCOS(=O)(=O)C1Br | > 100 µM (inactive) | > 100 µM (inactive) | 86.5 µM (inactive) | > 100 µM (inactive) | > 100 µM (inactive) | < 0.01 µM (active) | 52.2 µM (inactive) | – | > 100 µM (inactive) | > 100 µM (inactive) | > 100 µM (inactive) | > 100 µM (inactive) | > 100 µM (inactive) | – | > 100 µM (inactive) | > 100 µM (inactive) | > 100 µM (inactive) | –
8 | N#CCCN(CCC#N)C(=O)c1cccc(C(=O)N(CCC#N)CCC#N)c1 | > 93.3 µM (inactive) | > 40.9 µM (inactive) | > 77.8 µM (inactive) | 7.45 µM (inactive) | > 100 µM (inactive) | – | > 37.3 µM (inactive) | > 100 µM (inactive) | 13.4 µM (inactive) | 19.1 µM (inactive) | – | > 100 µM (inactive) | > 41.9 µM (inactive) | > 45.8 µM (inactive) | 72.1 µM (inactive) | > 58.7 µM (inactive) | > 50 µM (inactive) | 4.07 µM (inactive)
9 | COc1cc(C2C(Cl)C(=O)N2n2cnc3ccccc3c2=O)cc(OC)c1OC (stereo not given) | 41.9 µM (inactive) | – | > 100 µM (inactive) | > 100 µM (inactive) | > 100 µM (inactive) | > 100 µM (inactive) | 37.9 µM (inactive) | > 100 µM (inactive) | 60.3 µM (inactive) | > 100 µM (inactive) | > 100 µM (inactive) | 20.3 µM (inactive) | > 100 µM (inactive) | > 100 µM (inactive) | > 100 µM (inactive) | – | > 100 µM (inactive) | > 100 µM (inactive)
10 | C#CC[C@]12CC(=O)CC[C@H]1CC1(C2)OCCO1 | > 100 µM (inactive) | > 100 µM (inactive) | – | > 100 µM (inactive) | > 100 µM (inactive) | > 100 µM (inactive) | > 100 µM (inactive) | > 100 µM (inactive) | > 100 µM (inactive) | – | > 100 µM (inactive) | > 100 µM (inactive) | – | > 100 µM (inactive) | > 100 µM (inactive) | – | > 100 µM (inactive) | > 100 µM (inactive)
11 | CN1C(=O)CCC1(O)C1C=CC=CC1 (stereo not given) | > 100 µM (inactive) | > 100 µM (inactive) | > 100 µM (inactive) | > 100 µM (inactive) | > 100 µM (inactive) | > 100 µM (inactive) | > 100 µM (inactive) | > 100 µM (inactive) | > 100 µM (inactive) | > 100 µM (inactive) | > 100 µM (inactive) | > 100 µM (inactive) | > 100 µM (inactive) | > 100 µM (inactive) | > 100 µM (inactive) | – | > 100 µM (inactive) | > 100 µM (inactive)
12 | N=C(N)SCCc1cn2ccccc2n1 | > 100 µM (inactive) | > 100 µM (inactive) | > 100 µM (inactive) | > 100 µM (inactive) | – | > 100 µM (inactive) | – | > 100 µM (inactive) | > 100 µM (inactive) | > 100 µM (inactive) | > 100 µM (inactive) | > 100 µM (inactive) | > 100 µM (inactive) | > 100 µM (inactive) | > 100 µM (inactive) | – | > 100 µM (inactive) | –
13 | COC(=O)C1[C@H](c2ccc3c(c2)OCO3)OC(=O)[C@]1(C(=O)OC)C(=O)c1ccc(OC)c(OC)c1 (stereo not given in full) | 41.3 µM (inactive) | > 10 µM (inactive) | > 100 µM (inactive) | – | > 100 µM (inactive) | > 100 µM (inactive) | 59.7 µM (inactive) | 60.3 µM (inactive) | 39.3 µM (inactive) | 28.1 µM (inactive) | > 100 µM (inactive) | 36 µM (inactive) | 29.3 µM (inactive) | 44.9 µM (inactive) | 84.9 µM (inactive) | 44.4 µM (inactive) | 42.1 µM (inactive) | –
